Assay results published in US20240360194A1, “New Peptides as Potent and Selective GIP Receptor Agonists” (Sanofi, priority 2021, published 2024).
Numbered stars: 1 amine (or outer) side, 2 acyl side, 3 side chain; on linkers, the order of the positions; unused ones are H or OH. Square brackets hold non-standard residues; d marks the D form. Side chains are listed from the residue outwards. Peptide text beside a SMILES is read from it. * marks the point of attachment. C18 diacid = O=C(O)CCCCCCCCCCCCCCCCC(=O)*; γGlu = O=C(O)[C@H](CCC(=O)[*:2])N[*:1]; hLeu = CC(C)CC[C@H](N)C(=O)O; AEEA = NCCOCCOCC(=O)O; Aib = CC(C)(N)C(=O)O

Columns and labels:
[1] = target: T1, human GIP receptor (hGIPR) (Homo sapiens, UniProt P48546); assay: In vitro cellular cAMP assay for GIP receptor efficacy (HEK-293 cell line over-expressing receptor); assay type: cell-based; settings: EC50 hGIPR 0.1% BSA, HEK-293, 0.1% BSA
T1 sequence (P48546 22-466): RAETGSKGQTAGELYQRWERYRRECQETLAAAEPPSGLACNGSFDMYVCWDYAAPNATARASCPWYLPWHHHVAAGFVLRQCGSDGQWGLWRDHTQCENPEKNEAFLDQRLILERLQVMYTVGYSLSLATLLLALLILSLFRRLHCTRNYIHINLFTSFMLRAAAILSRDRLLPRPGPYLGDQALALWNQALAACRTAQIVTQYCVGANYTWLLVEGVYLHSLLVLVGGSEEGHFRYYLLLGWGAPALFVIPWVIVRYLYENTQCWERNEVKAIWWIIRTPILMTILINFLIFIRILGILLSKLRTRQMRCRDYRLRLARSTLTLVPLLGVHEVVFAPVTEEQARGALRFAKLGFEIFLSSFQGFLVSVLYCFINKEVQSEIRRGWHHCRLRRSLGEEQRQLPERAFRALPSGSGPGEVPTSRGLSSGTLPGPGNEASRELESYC

[2] = Solubility assessment (UHPLC-UV of supernatant, target 10 mg/ml); assay type: physicochemical
Outline: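 Peptides at 10 mg/ml (purity-corrected) in 100 mM phosphate pH 7.4, optionally with 2.7 mg/ml m-cresol; gentle agitation 1 h, then 5° C. overnight (24 h). Supernatant after 15 min centrifugation at 2500 RCF quantified by UHPLC-UV, with sequence-based extinction coefficients.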

[3] = target: human GLP-1 receptor (hGLP-1R) (Homo sapiens, UniProt P43220); assay: In vitro cellular cAMP assay for GLP-1 receptor efficacy (HEK-293 cell line over-expressing receptor); assay type: cell-based; settings: HEK-293, 0.1% BSA
human GIP receptor = target: T2, human GIP receptor (Homo sapiens, UniProt P48546); assay: In vitro cellular cAMP assay for GIP receptor efficacy (human adipocytes); assay type: cell-based
T2 construct: human adipocytes endogenously expressing the human GIP receptor; host or cells: human preadipocytes (Lonza) differentiated to adipocytes
T2 sequence (P48546 22-466): T1 sequence (P48546 22-466)
Outline: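 cAMP is read by HTRF (665/620 nm ratio, 1 h after reagents in lysis buffer) following 30 min compound exposure at room temperature. Cells are human preadipocyte-derived adipocytes, differentiated 6 days with insulin, dexamethasone, IBMX (200 μM), PPARγ agonist and L-thyroxine, seeded 5000 per well.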

[4] = target: T1, human GIP receptor (hGIPR); assay: Binding assay, displacement of [125I]GIP from HEK-293 membranes over-expressing GIPR (SPA); settings: [125I]GIP displacement
Outline: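 Membranes from HEK-293 cells over-expressing human GIPR or GLP-1R, isolated by homogenising, sonicating and ultracentrifuging at 100000×g into HEPES/EDTA/NaCl buffer with protease inhibitors, were used for binding.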

human GLP-1 receptor (hGLP-1R), sequence (P43220 24-463): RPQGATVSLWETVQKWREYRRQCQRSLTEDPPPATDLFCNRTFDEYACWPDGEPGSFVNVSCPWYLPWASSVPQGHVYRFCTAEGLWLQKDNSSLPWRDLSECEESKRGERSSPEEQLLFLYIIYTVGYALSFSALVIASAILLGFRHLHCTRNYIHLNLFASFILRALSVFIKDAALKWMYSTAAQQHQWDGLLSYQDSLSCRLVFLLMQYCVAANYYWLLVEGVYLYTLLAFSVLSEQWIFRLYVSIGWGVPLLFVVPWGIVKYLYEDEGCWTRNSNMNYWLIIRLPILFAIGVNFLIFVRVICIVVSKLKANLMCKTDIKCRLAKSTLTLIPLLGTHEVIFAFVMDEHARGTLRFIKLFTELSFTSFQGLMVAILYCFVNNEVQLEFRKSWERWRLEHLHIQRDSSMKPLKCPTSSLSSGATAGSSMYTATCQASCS

Compound | EC50 [1] [nM] | Soluble amount ([2]; 24 h, pH 7.4) [mg/mL] | solubility at 24 h ([2]; pH 7.4, Soluble amount) [µg/mL] | EC50 [3] [nM] | EC50 (human GIP receptor; read-out: hGIPR EC50) [nM] | Emax (human GIP receptor; read-out: hGIPR Emax) [%] | IC50 [4] [nM]
CC[C@H](C)[C@H](NC(=O)[C@H](Cc1ccccc1)NC(=O)[C@H](CCC(=O)O)NC(=O)[C@H](CCC(=O)O)NC(=O)[C@H](CCC(N)=O)NC(=O)[C@H](Cc1c[nH]cn1)NC(=O)[C@@H](NC(=O)[C@H](CCCNC(=N)N)NC(=O)[C@H](CC(=O)O)NC(=O)[C@H](CCCCNC(=O)COCCOCCNC(=O)COCCOCCNC(=O)CC[C@H](NC(=O)CCCCCCCCCCCCCCCCC(=O)O)C(=O)O)NC(=O)C(C)(C)NC(=O)[C@@H](NC(=O)[C@H](CO)NC(=O)[C@H](CC(C)C)NC(=O)[C@H](CC(=O)O)NC(=O)[C@H](CO)NC(=O)[C@@H](NC(=O)[C@H](Cc1ccccc1)NC(=O)[C@@H](NC(=O)CNC(=O)[C@H](CCC(=O)O)NC(=O)C(C)(C)NC(=O)[C@@H](N)Cc1ccc(O)cc1)[C@@H](C)O)[C@@H](C)CC)[C@@H](C)CC)[C@@H](C)CC)C(=O)N[C@@H](CCC(=O)O)C(=O)N[C@@H](Cc1c[nH]c2ccccc12)C(=O)N[C@@H](CC(C)C)C(=O)N[C@@H](CC(C)C)C(=O)N[C@@H](C)C(=O)N[C@@H](CCC(N)=O)C(=O)N[C@@H](CCC(=O)O)C(=O)NCC(=O)O [SEQ ID NO: 14, H2N-Y-Aib-E-G-T-F-I-S-D-L-S-I-Aib-K[{AEEA}2-gGlu-C18OH]-D-R-I-H-Q-E-E-F-I-E-W-L-L-A-Q-E-G-OH] (H-Y[Aib]EGTFISDLSI[Aib]K([AEEA-AEEA-γGlu-C18 diacid])DRIHQEEFIEWLLAQEG-OH) | 0.0757 | – | – | – | – | – | –
CC[C@H](C)[C@H](NC(=O)[C@H](Cc1ccccc1)NC(=O)[C@H](CCC(=O)O)NC(=O)[C@H](CCC(=O)O)NC(=O)[C@H](CCC(N)=O)NC(=O)[C@H](Cc1c[nH]cn1)NC(=O)[C@@H](NC(=O)[C@H](CCCNC(=N)N)NC(=O)[C@H](CC(=O)O)NC(=O)[C@H](CCCCNC(=O)COCCOCCNC(=O)COCCOCCNC(=O)CC[C@H](NC(=O)CCCCCCCCCCCCCCCCC(=O)O)C(=O)O)NC(=O)C(C)(C)NC(=O)[C@@H](NC(=O)[C@H](CO)NC(=O)[C@H](CCC(C)C)NC(=O)[C@H](CC(=O)O)NC(=O)[C@H](CO)NC(=O)[C@@H](NC(=O)[C@H](Cc1ccccc1)NC(=O)[C@@H](NC(=O)CNC(=O)[C@H](CCC(=O)O)NC(=O)C(C)(C)NC(=O)[C@@H](N)Cc1ccc(O)cc1)[C@@H](C)O)[C@@H](C)CC)[C@@H](C)CC)[C@@H](C)CC)C(=O)N[C@@H](CCC(=O)O)C(=O)N[C@@H](Cc1c[nH]c2ccccc12)C(=O)N[C@@H](CC(C)C)C(=O)N[C@@H](CC(C)C)C(=O)N[C@@H](C)C(=O)N[C@@H](CCC(N)=O)C(=O)NCC(=O)N1CCC[C@H]1C(=O)N[C@@H](CO)C(=O)N[C@@H](CO)C(=O)NCC(=O)N[C@@H](C)C(=O)N1CCC[C@H]1C(=O)N1CCC[C@H]1C(=O)N1CCC[C@H]1C(=O)N[C@@H](CO)C(N)=O [SEQ ID NO: 34, H2N-Y-Aib-E-G-T-F-I-S-D-Hol-S-I-Aib-K[{AEEA}2-gGlu-C18OH]-DRIHQEEFIEWLLAQGPSSGAPPPS-NH2] (H-Y[Aib]EGTFISD[hLeu]SI[Aib]K([AEEA-AEEA-γGlu-C18 diacid])DRIHQEEFIEWLLAQGPSSGAPPPS-NH2) | – | >8.7 | > 9200 | > 10 | 0.5 | 112 | 0.3
